Laboratory results published in publication PMC11357397, “Design, Synthesis, and Evaluation of Oleyl-WRH Peptides for siRNA Delivery” (Pharmaceuticals, 2024).

Assays:
Assay in all cases: In vitro cytotoxicity of peptide/siRNA complexes (MTS)
Conditions in all cases: 35% v/v DMSO
MCF-7 cells = format: cell-based
Experimental: (§1) This study aimed to assess these complexes’ potential as a delivery system for siRNA-mediated gene silencing in cancer cells. Our initial experiments involved the use of the MDA-MB-231 (Figure 6A), MCF-7 (Figure 6B), SK-OV-3 (Figure 7A), and HEK-293 (Figure 7B) cell lines for cell culture and in vitro cytotoxicity studies. After 72 h of incubation, we used an MTS test to determine the cytotoxicity of the developed peptides complexed with scrambled siRNA. The peptide/siRNA complexes were applied to the cells at various concentrations and N/P ratios (from 10 to 100). […] This finding corroborates the results from our previous reports.
(§2) The cell lines selected for this study included MDA-MB-231 (ATCC No. HTB-26, triple-negative breast cancer cell line), MCF-7 (ATCC No. HTB-22, breast adenocarcinoma cells), HEK-293 (ATCC No. CRL-1573, normal kidney cells), and SK-OV-3 (ATCC No. HTB-77, human epithelial ovary adenocarcinoma cells). […]
(§3) The cytotoxicity of the synthesized oleyl-conjugated peptides complexed with scrambled siRNA was evaluated in vitro using the aforementioned cell lines. […]
(§4) For the assay, 10,000 cells per 0.1 mL were seeded into each well of a 96-well plate using a multichannel pipette and allowed to adhere for 24 h in a standard cell culture incubator. Cell health and confluency were assessed after the initial 24 h period. […]

MDA-MB-231 cells = format: cell-based
Experimental: as §1, §2, §3, §4

SK-OV-3 cells = format: cell-based, human
Experimental: as §1, §2, §3, §4

HEK-293 cells = format: cell-based
Experimental: as §1
The cell lines selected for this study included MDA-MB-231 (ATCC No. HTB-26, triple-negative breast cancer cell line), MCF-7 (ATCC No. HTB-22, breast adenocarcinoma cells), HEK-293 (ATCC No. CRL-1573, normal kidney cells), and SK-OV-3 (ATCC No. HTB-77, human epithelial ovary adenocarcinoma cells).
as §3, §4

Measured: cells to which the positive control was cytotoxic

C[S+](C)[O-] [DMSO]
over 70%: MCF-7 cells | MDA-MB-231 cells | SK-OV-3 cells | HEK-293 cells
